Data: PubChem BioAssay (NCI)
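Protocol summary: plate cells (96-well), add compound at 5 concentrations, incubate 48 h, interpolate endpoints linearly. TGI: total growth inhibition.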

These compounds were tested on HCT-116 colon (assay: inhibition of tumour cell growth, NCI panel, 48 h).
`CC(C)C(NC(=O)Oc1ccccc1)C(=O)NC1c2c(Br)sc(Br)c2C(=O)C1O` (centres undefined) showed a TGI of 7.34 µM.
`O=C1SC(SCc2ccccc2)=NC12CC2c1ccccc1` (centres undefined) gave a TGI of 31.4 µM.
For `O=C1NC2(CCN(CCc3ccccc3)CC2)Oc2ccccc21`, the TGI was greater than 100 µM.
With `Nc1ncc2c(n1)-c1ccccc1OC2N1CCCCC1` (centres undefined) the TGI was greater than 100 µM.
Compound `Cc1ccc(S(=O)(=O)N2C3C=CC(C3)[C@@H]2C(Cl)(Cl)Cl)cc1` (some centres undefined) has a TGI of 24.7 µM.
In the case of `COCOC1/C=C/CCCCC(=O)C(C)C#CC1` (centres undefined), the TGI is reported as 3.34 µM.
`C[N+]12C=CC=C1C(N1CCCC1)c1scc(-c3ccc(Br)cc3)c12` (centres undefined) showed a TGI greater than 100 µM.
With `C[C@]12c3c4cc(NC(=O)C(=O)NCc5ccc(-c6ccccn6)nc5)cc3Oc3cc(NC(=O)C(=O)NCc5ccc(-c6ccccn6)nc5)cc(c31)OC1C=C(NC(=O)C(=O)NCc3ccc(-c5ccccn5)nc3)C=C(O4)C12` (some centres undefined) the TGI was greater than 100 µM.
`COC(=O)c1cccc(C)c1C1CN=NC12Cc1cc(C)cc(C)c1C2=O` (centres undefined) gave a TGI of 66.5 µM.
Compound `O=C1c2ccccc2-n2nnnc2C2CSCN12` (centres undefined) has a TGI greater than 100 µM.
`C/C(=N\NC(N)=S)c1ccc2c(c1)Sc1ccccc1O2` showed a TGI of 24.3 µM.
In the case of `O=c1[nH]c(=O)c2c3n(cc2[nH]1)CCCCC3`, the TGI is reported as greater than 100 µM.
Compound `COc1ccc(C(C)NNC(=O)c2ccncc2)cc1OC` (centres undefined) has a TGI greater than 100 µM.
Compound `CCOC(=O)C12OC(OCC)(CC1(OCC)OCC)C1(CC1)C2=O` (centres undefined) has a TGI greater than 100 µM.
Work on `O=C(C(=O)n1ccc2ccccc21)n1ccc2ccccc21` yielded a TGI greater than 100 µM.
`COc1ccc(C(SCCO)(c2ccccc2)c2ccc(OC)cc2)cc1` gave a TGI of 22.2 µM.
In the case of `N#Cc1cccc(-n2[nH]c(=O)ccc2=O)c1`, the TGI is reported as greater than 100 µM.
`CC(N)/C(N)=N/O` (centres undefined) gave a TGI greater than 100 µM.
For `CCOC(=O)CCC(NC(=O)C(N)Cc1ccc(N(CCCl)CCCl)cc1)C(=O)OCC` (centres undefined), the TGI was 3.54 µM.
With `CCN(CC)CCCNC(=O)c1cc(-c2nccn2C)nc2ccccc12` the TGI was greater than 100 µM.
Work on `COc1ccccc1CC(=O)C(O)(C(F)(F)F)C(F)(F)F` yielded a TGI greater than 100 µM.
For `COc1ccc2oc3c(C)cc4c(OC)nnc(OC)c4c3c2c1`, the TGI was 6.55 µM.
`CC(C)=C[C@H]1C[C@H](C)[C@H]2CC[C@H](C)c3c2c1c(C)c1ncoc31` was tested, and the TGI was 33.6 µM.
Work on `CCOC(=O)c1ccc(-c2cc(C)no2)[nH]1` yielded a TGI greater than 100 µM.
With `O=C1/C(=C\c2ccc(Cl)cc2Cl)Sc2scc(-c3ccc(O)c(O)c3)[n+]21` the TGI was 29.8 µM.

Each compound was assayed on M19-MEL melanoma (assay: inhibition of tumour cell growth, NCI panel, 48 h).
Compound `CCNC(=O)c1ccc(C)c(N=NN(C)C)c1` has a TGI greater than 100 µM.
With `N#Cc1cccc(-n2[nH]c(=O)ccc2=O)c1` the TGI was greater than 100 µM.

What follows are compounds tested on EKVX NSCLC (assay: inhibition of tumour cell growth, NCI panel, 48 h).
`CCCCCCc1cc2cc(-c3cn4ccsc4n3)c(=O)oc2cc1O` showed a TGI greater than 100 µM.
Work on `N#CSC#CCCC#CSC#N` yielded a TGI of 41.5 µM.
Compound `O=C(O)C1C2c3ccccc3C(c3ccccc32)C1C(=O)NCC1CC1` (centres undefined) has a TGI greater than 100 µM.
`COC(=O)[C@]1(C)CCC[C@@]2(C)C1CC[C@@]13C=C(C(C)C)[C@@H](CC1=O)CC23` (some centres undefined) was tested, and the TGI was 71.6 µM.
With `O=c1c(F)cn(Cc2c(Cl)cccc2Cl)c(=O)n1Cc1c(Cl)cccc1Cl` the TGI was greater than 31.6 µM.
Compound `CCNC(=O)c1ccc(C)c(N=NN(C)C)c1` has a TGI greater than 100 µM.
`C=CCNC(=S)N/C=C(\C#N)C(N)=O` was tested, and the TGI was greater than 100 µM.
In the case of `O=c1[nH]c(=O)n(C2COC(CO)C2O)cc1F` (centres undefined), the TGI is reported as greater than 100 µM.
Work on `O=[N+]([O-])c1ccc2nc(Nc3ccccc3)c(Nc3ccccc3)nc2c1` yielded a TGI of 6.22 µM.
Work on `COc1ccc(C2=CC(C(C)=C(C(N)=O)C(N)=O)C=C(c3ccc(Br)cc3)C2)c(OC)c1` (centres undefined) yielded a TGI greater than 100 µM.
Work on `CC(C)(CN1CCCCC1)C(/C=C/c1ccc(Cl)cc1)=N\NC(=O)N/N=C(/C=C/c1ccc(Cl)cc1)C(C)(C)CN1CCCCC1` yielded a TGI of 18.8 µM.
Compound `NC(Cc1ccccc1)C(=O)NC(Cc1ccccc1)NC(=O)C(Cc1c[nH]c2ccccc12)C(=O)O` (centres undefined) has a TGI greater than 100 µM.
With `CC(=O)CC1CCC(=O)/C=C/C(=O)OC(CC(C)=O)CCC(=O)/C=C/C(=O)O1` (centres undefined) the TGI was 21.2 µM.
With `O=C1c2sc(-c3ccc(Cl)cc3)cc2-n2cccc21` the TGI was greater than 100 µM.
`CC(C)C(NC(=O)Oc1ccccc1)C(=O)NC1c2c(Br)sc(Br)c2C(=O)C1O` (centres undefined) showed a TGI of 15.2 µM.
`O=C1SC(SCc2ccccc2)=NC12CC2c1ccccc1` (centres undefined) was tested, and the TGI was 44 µM.
In the case of `O=C1NC2(CCN(CCc3ccccc3)CC2)Oc2ccccc21`, the TGI is reported as greater than 100 µM.
`Nc1ncc2c(n1)-c1ccccc1OC2N1CCCCC1` (centres undefined) showed a TGI greater than 100 µM.
Compound `Cc1ccc(S(=O)(=O)N2C3C=CC(C3)[C@@H]2C(Cl)(Cl)Cl)cc1` (some centres undefined) has a TGI of 55 µM.
For `COCOC1/C=C/CCCCC(=O)C(C)C#CC1` (centres undefined), the TGI was 23.1 µM.
With `C[N+]12C=CC=C1C(N1CCCC1)c1scc(-c3ccc(Br)cc3)c12` (centres undefined) the TGI was greater than 100 µM.
`C[C@]12c3c4cc(NC(=O)C(=O)NCc5ccc(-c6ccccn6)nc5)cc3Oc3cc(NC(=O)C(=O)NCc5ccc(-c6ccccn6)nc5)cc(c31)OC1C=C(NC(=O)C(=O)NCc3ccc(-c5ccccn5)nc3)C=C(O4)C12` (some centres undefined) showed a TGI of 62.4 µM.
For `COC(=O)c1cccc(C)c1C1CN=NC12Cc1cc(C)cc(C)c1C2=O` (centres undefined), the TGI was 90.3 µM.
With `O=C1c2ccccc2-n2nnnc2C2CSCN12` (centres undefined) the TGI was greater than 100 µM.
`C/C(=N\NC(N)=S)c1ccc2c(c1)Sc1ccccc1O2` gave a TGI of 13.6 µM.
For `O=c1[nH]c(=O)c2c3n(cc2[nH]1)CCCCC3`, the TGI was greater than 100 µM.
For `COc1ccc(C(C)NNC(=O)c2ccncc2)cc1OC` (centres undefined), the TGI was greater than 100 µM.
